# B1: BDNF: brain-derived neurotrophic factor (protein, UniProt P23560 19-247, looked up)
# Neurotrophic factor BDNF …: APMKEANIRGQGGLAYPGVRTHGTLESVNGPKAGSRGLTSLADTFEHVIEELLDEDQKVRPNEENNKDADLYTSRVMLSSQVPLEPPLLFLLEEYKNYLDAANMSMRVRRHSDPARRGELSVCDSISEWVTAADKKTAVDMSGGTVTVLEKVPVSKGQLKQYFYETKCNPMGYTKEGCRGIDKRHWNSQCRTTQSYVRALTMDSKKRIGWRFIRIDTSCVCTLTIKRGR
# Columns and labels:
# [1] = test system: cerebellar granule cells; experiment: TOPA neurotoxicity in cerebellar granule cell cultures, MTT assay; format: cell-based; details: for Neuronal survival (%): control cultures = 100%
# Procedure: Granular cell cultures were obtained from 8-day rat cerebella and cultured (3×10^6 cells) on plates coated with poly-L-lysine substrate according to Skaper et al. (Skaper S. D. et al.: “Culture and use of primary and clonal neural cells”, Methods in Neurosciences, Ed. by P. M. Conn, Vol. 2, pp. 17-33, Academic Press, Orlando, 1990).
# Twenty-four hours later, cytosine arabinoside (10 μM) was added to inhibit non-neuronal proliferation. Cerebellar granule cells were used 10-12 days later without changing the medium.
# Cells were incubated with TOPA either for 40 minutes (100 μM acute exposure) or for 24 h (10 μM prolonged exposure).
# Treatment with GM1, AGF2, AGF4 (100 μM) and LIGA 20 (1-30 μm) was carried out as follows:
# (§1) 2-hour pretreatment before acute incubation with TOPA;
# (§2) cotreatment only with LIGA 20 before acute incubation with TOPA;
# (§3) pretreatment with/without cotreatment before (100 μM for 2 h) and/or during (100 μM for 24 h) prolonged incubation with TOPA. TOPA cytotoxicity was determined by evaluating cellular survival, and more precisely:
# MTT colorimetric assay of cerebellar neurons, as described by Mosmann (Mosmann T.: “Rapid colorimetric assay for cellular growth and survival: application to proliferation and cytotoxicity assays”, J. Immunol. Meth., 65, 55-63, 1983).
# (§4) Cytotoxicity is expressed as per cent cellular survival.
# The results of the two tests (in triplicate) were analysed statistically according to Duncan's test. A brief description of same is reported below:
# In FIG. 3 the dose-dependent protective effect of LIGA20 against TOPA-induced death of cultured cerebellar granule cells is represented. Cells were exposed concurrently to 100 μM TOPA and 1-30 μM LIGA20 or 200 μM GM1 in Locke's solution for 45 minutes (24° C.), washed and returned to their original medium. Survival was assessed 24 h later by the MTT method. Means±S.E.M. (n=9, 3 experiments). TOPA ( ), LIGA 20 ( ), GM1 ( ).
# In vitro granule cells at the 11th day were incubated as indicated above. In the 40-minute exposure to TOPA, GM1 (100 μM) was used in 2-h pretreatment only. In the […] exposure to TOPA, GM1 (100 μM) was used either in 2-h pretreatment only or in 2-h pretreatment and in cotreatment with TOPA. The values are expressed with reference to the corresponding control cultures (=100%) and are an average (±S.D.) of two determinations, each being carried out in triplicate.
# [2] = test system: mesencephalic dopaminergic neurons; experiment: TOPA neurotoxicity in mesencephalic dopaminergic neuron cultures, TH immunofluorescence; format: cell-based, rat
# Procedure: Mesencephalic neuron cultures were prepared according to Dal Toso et al. (Dal Toso et al.: “Development and survival of neurons in dissociated fetal mesencephalic serum-free cell cultures: I. Effects of cell density and of an adult mammalian striatal-derived neuronotrophic factor (SDNF)”, J. Neurosci., 8 (3) 733-745, 1988) from the mesencephalic tegmentum of 14.5-15 days' rat embryos.
# Neurons (0.75×10^6) were plated on a poly-L-ornithine substrate in 12-well (25 mm dia. each) clusters.
# Cultures were used between the fourth and the sixth day without changing the medium. […]
# as §1, §2, §3
# TH immunofluorescence (specific for tyrosine hydroxylase) in mesencephalic dopaminergic neurons, as described by Berger et al. (Berger B. et al.: “Long-term development of mesencephalic dopaminergic neurons of mouse embryos in dissociated primary cultures: morphological and histochemical characteristics”, Neurosci., 7, 193-205, 1982);
# as §4
# The results of the two tests (in triplicate) were analysed statistically according to Duncan's test.
molecule,measurement,setting,value
"NC(Cc1cc(O)c(O)cc1O)C(=O)O (stereo not drawn) [TOPA, 6-hydroxy-dopa, reference compound]",Neuronal survival (%),"[1]; TOPA 10 μM alone, 24-h exposure",17.1 ± 1.4%
same,Neuronal survival (%),"[1]; TOPA 100 μM alone, 40-minute exposure",22 ± 2.0%
same,No. of TH+ cells,"[2]; TOPA 10 μM alone for 24 h, average ± S.D., control 244 ± 20",62 ± 8 (a)
N-dichloroacetyl lyso GM1 [LIGA20],EC50,"[1]; cotreatment with 100 μM TOPA for 45 minutes, 1-30 μM LIGA20, MTT 24 h later (FIG. 3), read-out: ED50 of protection against the acute toxicity of TOPA",~9 µM
same,TH+ cells (% control),"[2]; 30 μM LIGA20 cotreatment with 100 μM TOPA for 45 minutes, counted 24 h later, mean ± S.E.M., no drug 5.2 ± 1.1",83.9 ± 4.2 % control
B1,neuroprotective activity alone against TOPA-induced neurotoxicity,[2]; BDNF alone at 1 ng/ml,no neuroprotective activity of their own

# Reference: patent publication US6620792B1, “Pharmaceutical compositions containing monosialoganglioside GM1 or derivative thereof suitable for the treatment of parkinson's disease” (Fidia S.p.A., priority 1992, dated 2003)
